Calls of active or inactive are those of the source. The calls are words filed in the database; no cut-off is given here. Positions of bridges follow the written chain, without caps; N, C: chain ends. Non-standard residues stand in square brackets, D forms with d. Residues, ends and D or L forms follow the SMILES beside them. *: point of attachment. Benzoyl(2-OMe,5-SO2F) = COc1ccc(S(=O)(=O)F)cc1C(=O)*; Ser(allyl) = C=CCOC[C@H](N)C(=O)O; S5 = C=CCCC[C@](C)(N)C(=O)O; Dap = NC[C@H](N)C(=O)O
Columns and labels:
[1] = molecular target: T1, Induced myeloid leukemia cell differentiation protein Mcl-1 (Homo sapiens, UniProt Q07820); assay: Displacement of biotinylated BH3 peptide from N-terminal His6-tagged human Mcl-1 ligand binding domain (172 to 323 residues) expressed in Escherichia coli BL21(DE3) gold pLysS cells preincubated with protein for 2 hrs followed by incubation with BH3 peptide for 2 hrs by DELFIA assay
T1 sequence (Q07820 whole entry, the tested form may be a part): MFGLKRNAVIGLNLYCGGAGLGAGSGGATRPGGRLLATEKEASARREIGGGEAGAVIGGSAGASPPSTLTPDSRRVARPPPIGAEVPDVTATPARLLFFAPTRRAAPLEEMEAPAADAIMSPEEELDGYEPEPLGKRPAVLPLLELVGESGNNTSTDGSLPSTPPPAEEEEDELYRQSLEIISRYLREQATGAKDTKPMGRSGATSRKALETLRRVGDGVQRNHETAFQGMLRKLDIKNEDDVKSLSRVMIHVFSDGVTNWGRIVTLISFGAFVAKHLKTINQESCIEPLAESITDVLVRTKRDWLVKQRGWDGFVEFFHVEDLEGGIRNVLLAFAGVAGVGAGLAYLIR

[2] = molecular target: T1, Induced myeloid leukemia cell differentiation protein Mcl-1; assay: (§1) Covalent binding affinity to N-terminal His6-tagged human Mcl-1 ligand binding domain (172 to 323 residues) expressed in Escherichia coli BL21(DE3) gold pLysS cells assessed as stable covalent adduct formation by measuring band shift at 100 uM incubated for 16 hrs by SDS PAGE analysis
[3] = species on record: Homo sapiens; assay: as §1, with “residues) Lys234Ala mutant” for “residues)”
[4] = species on record: Homo sapiens; assay: as §1, with “residues) His252Ala mutant” for “residues)”
[5] = molecular target: T2, Bcl-2-related protein A1 (Homo sapiens) (UniProt Q16548); assay: Covalent binding affinity to N-terminal His6-tagged human Bfl-1 (1 to 149 residues) assessed as band shift at 100 uM incubated for 16 hrs by SDS PAGE analysis
T2 sequence (whole entry): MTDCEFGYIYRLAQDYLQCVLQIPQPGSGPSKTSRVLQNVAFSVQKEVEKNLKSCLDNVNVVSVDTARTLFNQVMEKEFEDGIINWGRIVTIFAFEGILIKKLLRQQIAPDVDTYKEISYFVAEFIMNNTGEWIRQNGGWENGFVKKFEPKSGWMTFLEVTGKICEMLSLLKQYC

[6] = test system: A549; assay: Induction of cell lysis in NucLight Red-labeled human A549 cells assessed as cell bursting at 100 uM measured after 20 mins by IncuCyte S3 live cell analysis based fluorescence microscopy; assay type: toxicity; settings: a549, 20 min

| Structure (SMILES) | IC50 [1] [nM] | Activity [2] | Activity [3] | Activity [4] | Activity [5] | Activity [6] |
| --- | --- | --- | --- | --- | --- | --- |
| CC[C@H](C)[C@H](NC(=O)[C@H](CCCNC(=N)N)NC(=O)[C@]1(C)CCC/C=C\CCC[C@](C)(NC(=O)[C@@H](NC(=O)[C@@H](CNC(=O)c2cc(S(=O)(=O)F)ccc2OC)NC(C)=O)[C@@H](C)CC)C(=O)N[C@H](CCC(=O)O)C(=O)N[C@@H](CCC(N)=O)C(=O)N[C@@H](CC(C)C)C(=O)N1)C(=O)NCC(=O)N[C@@H](CC(=O)O)C(=O)N[C@@H](CCCNC(=N)N)C(=O)N[C@@H](Cc1ccccc1)C(N)=O | 174 | Active | Active | Active | inactive | – |
| CC[C@H](C)[C@H](NC(=O)[C@@H]1CCCCn2cc(nn2)CCC[C@H](NC(=O)[C@H](C)NC(=O)[C@@H](NC(=O)[C@H](CNC(=O)c2cc(S(=O)(=O)F)ccc2OC)NC(C)=O)[C@@H](C)CC)C(=O)N[C@@H](CCC(N)=O)C(=O)N[C@@H](CC(C)C)C(=O)N[C@@H](CCCNC(=N)N)C(=O)N1)C(=O)NCC(=O)N[C@@H](CC(=O)O)C(=O)N[C@@H](CCCNC(=N)N)C(=O)N[C@@H](Cc1ccccc1)C(N)=O | 21 | Active | Active | Active | inactive | – |
| CC[C@H](C)[C@H](NC(=O)[C@H](CCCNC(=N)N)NC(=O)[C@H](CCCNC(=N)N)NC(=O)[C@H](CC(C)C)NC(=O)[C@H](CCC(N)=O)NC(=O)[C@H](CCC(=O)O)NC(=O)[C@H](C)NC(=O)[C@@H](NC(=O)[C@H](CNC(=O)c1cc(S(=O)(=O)F)ccc1OC)NC(C)=O)[C@@H](C)CC)C(=O)NCC(=O)N[C@@H](CC(=O)O)C(=O)N[C@@H](CCCNC(=N)N)C(=O)N[C@@H](Cc1ccccc1)C(N)=O (Ac-[Dap](Benzoyl(2-OMe,5-SO2F))IAEQLRRIGDRF-NH2) | 18 | – | – | – | – | – |
| CC[C@H](C)[C@H](NC(=O)[C@H](CNC(=O)c1cc(S(=O)(=O)F)ccc1OC)NC(C)=O)C(=O)N[C@@H](C)C(=O)N[C@@]1(C)CCC/C=C\CCC[C@@](C)(C(=O)N[C@H](C(=O)NCC(=O)N[C@@H](CC(=O)O)C(=O)N[C@@H](C)C(=O)N[C@@H](Cc2ccccc2)C(N)=O)[C@@H](C)CC)NC(=O)[C@H](CCCNC(=N)N)NC(=O)[C@H](CC(C)C)NC(=O)[C@H](CCC(N)=O)NC1=O (Ac-[Dap](Benzoyl(2-OMe,5-SO2F))IA[S5]QLR[S5]IGDAF-NH2; staple (Z) 4-8) | 12 | Active | Active | Active | inactive | – |
| CC[C@H](C)[C@H](NC(=O)[C@H](CNC(=O)c1cc(S(=O)(=O)F)ccc1OC)NC(C)=O)C(=O)N[C@@H](C)C(=O)N[C@@]1(C)CCC/C=C\CCC[C@@](C)(C(=O)N[C@H](C(=O)NCC(=O)N[C@@H](CC(=O)O)C(=O)N[C@@H](CCCNC(=N)N)C(=O)N[C@@H](Cc2ccccc2)C(N)=O)[C@@H](C)CC)NC(=O)[C@H](CCCNC(=N)N)NC(=O)[C@H](CC(C)C)NC(=O)[C@H](CCC(N)=O)NC1=O (Ac-[Dap](Benzoyl(2-OMe,5-SO2F))IA[S5]QLR[S5]IGDRF-NH2; staple (Z) 4-8) | 14 | Active | Active | Active | inactive | – |
| CC[C@H](C)[C@H](NC(=O)[C@H](CNC(=O)c1cc(S(=O)(=O)F)ccc1OC)NC(C)=O)C(=O)N[C@@H](C)C(=O)N[C@H]1COC/C=C\CCC[C@@](C)(C(=O)N[C@H](C(=O)NCC(=O)N[C@@H](CC(=O)O)C(=O)N[C@@H](CCCNC(=N)N)C(=O)N[C@@H](Cc2ccccc2)C(N)=O)[C@@H](C)CC)NC(=O)[C@H](CCCNC(=N)N)NC(=O)[C@H](CC(C)C)NC(=O)[C@H](CCC(N)=O)NC1=O (Ac-[Dap](Benzoyl(2-OMe,5-SO2F))IA[Ser(allyl)]QLR[S5]IGDRF-NH2; staple (Z) 4-8) | 6.6 | Active | Active | Active | inactive | – |
| CC[C@H](C)[C@H](NC(=O)[C@H](C)NC(=O)[C@H](CCCNC(=N)N)NC(=O)[C@H](CC(C)C)NC(=O)[C@H](CCC(N)=O)NC(=O)[C@]1(C)CCC/C=C/CCC[C@](C)(NC(C)=O)C(=O)N[C@@H](CNC(=O)c2cc(S(=O)(=O)F)ccc2OC)C(=O)N[C@@H]([C@@H](C)CC)C(=O)N[C@@H](C)C(=O)N1)C(=O)NCC(=O)N[C@@H](CC(=O)O)C(=O)N[C@@H](C)C(=O)N[C@@H](Cc1ccccc1)C(N)=O (Ac-[S5][Dap](Benzoyl(2-OMe,5-SO2F))IA[S5]QLRAIGDAF-NH2; staple (E) 1-5) | 17 | Active | Active | Active | inactive | – |
| CC[C@H](C)[C@H](NC(=O)[C@H](C)NC(=O)[C@H](CCCNC(=N)N)NC(=O)[C@H](CC(C)C)NC(=O)[C@H](CCC(N)=O)NC(=O)[C@]1(C)CCC/C=C/CCC[C@](C)(NC(C)=O)C(=O)N[C@@H](CNC(=O)c2cc(S(=O)(=O)F)ccc2OC)C(=O)N[C@@H]([C@@H](C)CC)C(=O)N[C@@H](C)C(=O)N1)C(=O)NCC(=O)N[C@@H](CC(=O)O)C(=O)N[C@@H](CCCNC(=N)N)C(=O)N[C@@H](Cc1ccccc1)C(N)=O (Ac-[S5][Dap](Benzoyl(2-OMe,5-SO2F))IA[S5]QLRAIGDRF-NH2; staple (E) 1-5) | 35 | Active | Active | Active | inactive | – |
| CC[C@H](C)[C@H](NC(=O)[C@H](CC(=O)O)NC(=O)[C@H](CCCNC(=N)N)NC(=O)[C@H](CC(C)C)NC(=O)[C@H](CCC(N)=O)NC(=O)[C@]1(C)CCC/C=C/CCC[C@](C)(NC(C)=O)C(=O)N[C@@H](CNC(=O)c2cc(S(=O)(=O)F)ccc2OC)C(=O)N[C@@H]([C@@H](C)CC)C(=O)N[C@@H](C)C(=O)N1)C(=O)NCC(=O)N[C@@H](CC(=O)O)C(=O)N[C@@H](CCCNC(=N)N)C(=O)N[C@@H](Cc1ccccc1)C(N)=O (Ac-[S5][Dap](Benzoyl(2-OMe,5-SO2F))IA[S5]QLRDIGDRF-NH2; staple (E) 1-5) | 30 | Active | Active | Active | inactive | – |
| CC[C@H](C)[C@H](NC(=O)[C@H](CCCNC(=N)N)NC(=O)[C@H](CCCNC(=N)N)NC(=O)[C@H](CC(C)C)NC(=O)[C@H](CCC(N)=O)NC(=O)[C@]1(C)CCC/C=C/CCC[C@](C)(NC(C)=O)C(=O)N[C@@H](CNC(=O)c2cc(S(=O)(=O)F)ccc2OC)C(=O)N[C@@H]([C@@H](C)CC)C(=O)N[C@@H](C)C(=O)N1)C(=O)NCC(=O)N[C@@H](CC(=O)O)C(=O)N[C@@H](CCCNC(=N)N)C(=O)N[C@@H](Cc1ccccc1)C(N)=O (Ac-[S5][Dap](Benzoyl(2-OMe,5-SO2F))IA[S5]QLRRIGDRF-NH2; staple (E) 1-5) | 24 | Active | Active | Active | inactive | Toxic |

From ChEMBL document CHEMBL5550138, “Histidine-Covalent Stapled Alpha-Helical Peptides Targeting hMcl-1” (J Med Chem, 2024)
